# Reference: patent US20230124862A1, “BISMUTH THIOL COMPOUNDS AND COMPOSITIONS AND METHODS OF TREATING MICROBIAL CO-INFECTIONS” (Microbion Corporation, priority 2020, published 2023)
# Like-named read-outs stand apart in the source and are kept apart here.
# Key:
# Haemophilus influenzae [1] = test: Broth microdilution MIC, Haemophilus influenzae clinical isolates; assay type: cell-based
# Haemophilus influenzae [2] = conditions: H. influenzae MMX 1224 (ATCC 49247); in µg/mL; cited from earlier work
# Candida spp. [3] = test: Broth microdilution MIC (Example 11); assay type: cell-based, C. parapsilosis, C. albicans, C. glabrata, C. tropicalis
# S. aureus ATCC 29213 = test: MIC control strain; conditions: QC organism, Example 13
# E. coli ATCC 25922 = test: MIC control strain; conditions: QC organism, Example 13
# Candida krusei [4] = conditions: C. krusei ATCC 6258, CLSI established QC range, cited from earlier work
# Aspergillus spp. [5] = test: Antifungal broth microdilution (Example 13); assay type: cell-based, A. niger, A. terreus, A. fumigatus, A. flavus
# [6] = system: C. parapsilosis ATCC 22019; test: Antifungal broth microdilution (Example 13), QC organism; assay type: cell-based, Candida parapsilosis; conditions: comparators, single value
# [7] = system: C. parapsilosis ATCC 22019; conditions: C. parapsilosis ATCC 22019, CLSI established QC range, cited from earlier work
# Aspergillus spp. [8] = conditions: cited from earlier work
# Candida spp. [9] = conditions: C. parapsilosis MMX 2323 (ATCC 22019), cited from earlier work
# Candida krusei [10] = test: Antifungal broth microdilution (Example 13); assay type: cell-based; conditions: C. krusei ATCC 6258, comparators, single value
# [11] = system: Anaerobes (Bacteroides fragilis, Clostridium difficile); conditions: cited from earlier work
# [12] = system: Anaerobes (Bacteroides fragilis, Clostridium difficile); test: Agar dilution MIC (Example 11); assay type: cell-based; conditions: read-out: MIC
# Description: The susceptibility of anaerobic bacteria was determined by agar dilution using Brucella Agar (BD/BBL; Lot No. 5237692) supplemented with 5 μg/mL hemin (Sigma, St. Louis, Mo.; Lot No. 108K1088), 1 μg/mL Vitamin K1 and 5% (v/v) laked sheep blood (Cleveland Scientific, Bath, Ohio; Lot No. 322799).
# Agar Dilution MIC Testing (Anaerobic Bacteria and Gonococci): MIC values for anaerobic bacteria were determined using a reference agar dilution method as described by CLSI (6). Organisms were grown at 35° C. in the Bactron II Anaerobic Chamber (Shel Lab, Cornelius, Oreg.) for approximately 48 hr prior to the assay. Drug dilutions and drug-supplemented agar plates were prepared manually per CLSI (6). The plates were allowed to stand at room temperature for 1 hr to allow the agar surface to dry and pre-reduced for approximately 1 hr in the anaerobe chamber prior to inoculation. Each isolate was suspended to the equivalent of a 0.5 McFarland standard in Brucella broth using a turbidity meter (Dade Behring MicroScan, West Sacramento, Calif.). Each bacterial cell suspension was then diluted 1:10 in Brucella broth and transferred to wells in a stainless steel replicator block which was used to inoculate the test plates. The prongs on the replicator deliver approximately 1-2 μl of inoculum to an agar surface. The resulting inoculum spots contained approximately 1×10^5 CFU/spot. After the inoculum dried, the inoculated drug-supplemented agar plates and no drug growth control plates were incubated at 35° C. for 42-48 hr in the anaerobe chamber. The MIC was read per CLSI guidelines (6).
# [13] = system: Gram-positive organisms (S. aureus, S. pneumoniae); conditions: cited from earlier work
# [14] = system: Gram-positive organisms (S. aureus, S. pneumoniae); test: Broth microdilution MIC with pulmonary surfactant (Survanta); assay type: cell-based, Staphylococcus aureus, Streptococcus pneumoniae
# [15] = C. difficile MMX 4381 (ATCC 700057)
# [16] = Bacteroides fragilis, ATCC25285, B. fragilis MMX 123 (ATCC 25285), QC
# [17] = C. difficile MMX 4381 (ATCC 700057), QC, CC^1
# [18] = C. difficile MMX 5680 (NCTC 13336), ribotype 027, CC^1 MET^R
# [19] = C. difficile MMX 5681 (NCTC 13307), ribotype 012, CC^R
# [20] = C. difficile MMX 8272, ribotype 255, CC^1
# [21] = C. difficile MMX 8279, ribotype 005, CC^R
# [22] = C. difficile MMX 8281, ribotype 010, CC^R
smiles,measurement,setting,value
CC1(C)S[C@@H]2[C@H](NC(=O)[C@H](N)c3ccccc3)C(=O)N2[C@H]1C(=O)O [AMP],MIC,"Haemophilus influenzae [1]; H. influenzae MMX 0797, BLNAR",4 µg/mL
same,MIC,Haemophilus influenzae [1]; H. influenzae MMX 1224 (ATCC 49247),2 µg/mL
same,MIC,Haemophilus influenzae [1]; H. influenzae MMX 1302,0.25 µg/mL
same,MIC,Haemophilus influenzae [1]; H. influenzae MMX 1304,0.25 µg/mL
same,MIC,Haemophilus influenzae [1]; H. influenzae MMX 1740,4 µg/mL
same,MIC,Haemophilus influenzae [1]; H. influenzae MMX 1741,4 µg/mL
same,MIC,"Haemophilus influenzae [1]; H. influenzae MMX 2795, BLNAR",4 µg/mL
same,MIC,"Haemophilus influenzae [1]; H. influenzae MMX 2796, BLNAR",2 µg/mL
same,MIC,"Haemophilus influenzae [1]; H. influenzae MMX 2798, BLNAR",4 µg/mL
same,MIC,"Haemophilus influenzae [1]; H. influenzae MMX 2799, BLNAR",4 µg/mL
same,MIC,Haemophilus influenzae [1]; H. influenzae MMX 5458,0.12 µg/mL
same,MIC,Haemophilus influenzae [1]; H. influenzae MMX 5461,0.5 µg/mL
same,MIC,Haemophilus influenzae [1]; H. influenzae MMX 5469,4 µg/mL
same,MIC,Haemophilus influenzae [1]; H. influenzae MMX 5494,0.12 µg/mL
same,MIC,Haemophilus influenzae [1]; H. influenzae MMX 5495,0.25 µg/mL
same,MIC,Haemophilus influenzae [1]; H. influenzae MMX 5499,0.25 µg/mL
same,CLSI Quality Control Range (MIC),Haemophilus influenzae [2],2-8
C[C@@H]1[C@H](O)[C@@H](C)/C=C/C=C/C=C/C=C/C=C/C=C/C=C/[C@H](O[C@@H]2O[C@H](C)[C@@H](O)[C@H](N)[C@@H]2O)C[C@@H]2O[C@](O)(C[C@@H](O)C[C@@H](O)[C@H](O)CC[C@@H](O)C[C@@H](O)CC(=O)O[C@H]1C)C[C@H](O)[C@H]2C(=O)O [Amphotericin B],MIC,"Candida spp. [3]; C. albicans MMX 7039, Sensitive, incubation 24 hr","0.5, 0.5 μg/mL"
same,MIC,"Candida spp. [3]; C. albicans MMX 7039, Sensitive, incubation 48 hr","0.5, 0.5 μg/mL"
same,MIC,"Candida spp. [3]; C. albicans MMX 7055, Sensitive, incubation 24 hr",0.25 µg/mL
same,MIC,"Candida spp. [3]; C. albicans MMX 7055, Sensitive, incubation 48 hr",0.5 µg/mL
same,MIC,"Candida spp. [3]; C. glabrata MMX 7318, FLU^R, incubation 24 hr",0.5 µg/mL
same,MIC,"Candida spp. [3]; C. glabrata MMX 7318, FLU^R, incubation 48 hr",1 µg/mL
same,MIC,"Candida spp. [3]; C. glabrata miX 7086, FLU^R, incubation 24 hr",0.5 µg/mL
same,MIC,"Candida spp. [3]; C. glabrata miX 7086, FLU^R, incubation 48 hr",1 µg/mL
same,MIC,"Candida spp. [3]; C. parapsilosis MMX 2323 (ATCC 22019), QC, incubation 24 hr",0.5 µg/mL
same,MIC,"Candida spp. [3]; C. parapsilosis MMX 2323 (ATCC 22019), QC, incubation 48 hr",1 µg/mL
same,MIC,"Candida spp. [3]; C. parapsilosis MMX 7370, FLU^R, incubation 24 hr",0.5 µg/mL
same,MIC,"Candida spp. [3]; C. parapsilosis MMX 7370, FLU^R, incubation 48 hr",1 µg/mL
same,MIC,"Candida spp. [3]; C. parapsilosis MMX 7555, FLU^R, incubation 24 hr","0.5, 0.5 μg/mL"
same,MIC,"Candida spp. [3]; C. parapsilosis MMX 7555, FLU^R, incubation 48 hr","0.5, 0.5 μg/mL"
same,MIC,"Candida spp. [3]; C. tropicalis MMX 7247, FLU^R, incubation 24 hr",0.5 µg/mL
same,MIC,"Candida spp. [3]; C. tropicalis MMX 7247, FLU^R, incubation 48 hr",1 µg/mL
same,MIC,"Candida spp. [3]; C. tropicalis MMX 7248, FLU^R, incubation 24 hr",0.5 µg/mL
same,MIC,"Candida spp. [3]; C. tropicalis MMX 7248, FLU^R, incubation 48 hr",1 µg/mL
same,MIC,"Candida spp. [3]; C. tropicalis MMX 7360, FLU^R, incubation 24 hr","0.5, 0.5 μg/mL"
same,MIC,"Candida spp. [3]; C. tropicalis MMX 7360, FLU^R, incubation 48 hr","0.5, 0.5 μg/mL"
same,MIC 24 hr,S. aureus ATCC 29213,>64
same,MIC 24 hr,E. coli ATCC 25922,>64
same,QC Range 24 hr,Candida krusei [4]; 24 hr,0.5-2
same,QC Range 48 hr,Candida krusei [4]; 48 hr,1-4
same,MIC 24 hr,Aspergillus spp. [5]; A. flavus ATCC 204304,0.5 µg/mL
same,MIC 48 hr,Aspergillus spp. [5]; A. flavus ATCC 204304,1 µg/mL
same,MIC 24 hr,Aspergillus spp. [5]; A. fumigatus ATCC MYA-3626,0.5 µg/mL
same,MIC 48 hr,Aspergillus spp. [5]; A. fumigatus ATCC MYA-3626,1 µg/mL
same,MIC 24 hr,[6]; 24 hr,0.5 µg/mL
same,MIC 48 hr,[6]; 48 hr,0.5 µg/mL
same,QC Range 24 hr,[7]; 24 hr,0.25-2
same,QC Range 48 hr,[7]; 48 hr,0.5-4
same,QC Range 48 hr,"Aspergillus spp. [8]; A. flavus ATCC 204304, CLSI established QC range",0.5-4
same,QC Range 48 hr,"Aspergillus spp. [8]; A. fumigatus ATCC MYA-3626, CLSI established QC range",0.5-4
same,CLSI QC range of MIC,Candida spp. [9]; 24 hr,0.25 to 2 µg/mL
same,CLSI QC range of MIC,Candida spp. [9]; 48 hr,0.5 to 4 µg/mL
same,MIC 24 hr,Candida krusei [10]; 24 hr,0.5 µg/mL
same,MIC 48 hr,Candida krusei [10]; 48 hr,0.5 µg/mL
CCc1c(Cl)c(O)c(Cl)c(O)c1C(=O)O[C@H]1[C@H](O)[C@H](OC)[C@H](OC/C2=C\C=C\C[C@H](O)/C(C)=C/[C@H](CC)[C@@H](O[C@@H]3OC(C)(C)[C@@H](OC(=O)C(C)C)[C@H](O)[C@@H]3O)/C(C)=C/C(C)=C/C[C@@H]([C@@H](C)O)OC2=O)O[C@@H]1C [Fidaxomicin],CLSI QC range of MIC,[11]; [15],(0.06-0.25) μg/mL
same,MIC,[12]; [16],> 64 µg/mL
same,MIC,[12]; [17],0.25 µg/mL
same,MIC,[12]; [18],4 µg/mL
same,MIC,[12]; [19],0.5 µg/mL
same,MIC,[12]; [20],0.5 µg/mL
same,MIC,[12]; [21],0.5 µg/mL
same,MIC,[12]; [22],0.5 µg/mL
Cc1ncc([N+](=O)[O-])n1CCO [Metronidazole],CLSI QC range of MIC,[11]; B. fragilis MMX 123 (ATCC 25285),(0.25-1) μg/mL
same,CLSI QC range of MIC,[11]; [15],(0.12-0.5) μg/mL
same,MIC,[12]; [16],0.5 µg/mL
same,MIC,[12]; [17],0.5 µg/mL
same,MIC,[12]; [18],> 64 µg/mL
same,MIC,[12]; [19],0.5 µg/mL
same,MIC,[12]; [20],0.5 µg/mL
same,MIC,[12]; [21],0.5 µg/mL
same,MIC,[12]; [22],8 µg/mL
CCCCCCCCCC(=O)N[C@@H](Cc1c[nH]c2ccccc12)C(=O)N[C@H](CC(N)=O)C(=O)N[C@@H](CC(=O)O)C(=O)N[C@@H]1C(=O)NCC(=O)N[C@@H](CCCN)C(=O)N[C@@H](CC(=O)O)C(=O)N[C@H](C)C(=O)N[C@@H](CC(=O)O)C(=O)NCC(=O)N[C@H](CO)C(=O)N[C@@H]([C@H](C)CC(=O)O)C(=O)N[C@@H](CC(=O)c2ccccc2N)C(=O)O[C@@H]1C [daptomycin],CLSI acceptable MIC QC range,[13]; S. aureus ATCC 29213,(0.12-1) μg/mL
same,CLSI acceptable MIC QC range,[13]; S. pneumoniae ATCC 49619,(0.06-0.5) μg/mL
same,effect of Survanta addition on MIC values,[14]; S. aureus and S. pneumoniae,increased
same,MIC,"[14]; S. pneumoniae ATCC 49619, 0 percent Survanta",0.06 µg/mL
same,MIC,"[14]; S. pneumoniae ATCC 49619, 1 percent Survanta",0.25 µg/mL
same,MIC,"[14]; S. pneumoniae ATCC 49619, 2.5 percent Survanta",1 µg/mL
same,MIC,"[14]; S. pneumoniae MMX 3162, 0 percent Survanta",0.12 µg/mL
same,MIC,"[14]; S. pneumoniae MMX 3162, 1 percent Survanta",0.25 µg/mL
same,MIC,"[14]; S. pneumoniae MMX 3162, 2.5 percent Survanta",0.25 µg/mL
same,MIC,"[14]; Staphylococcus aureus, ATCC29213, S. aureus ATCC 29213, 0 percent Survanta",0.5 µg/mL
same,MIC,"[14]; Staphylococcus aureus, ATCC29213, S. aureus ATCC 29213, 1 percent Survanta",16 µg/mL
same,MIC,"[14]; Staphylococcus aureus, ATCC29213, S. aureus ATCC 29213, 2.5 percent Survanta",32 µg/mL
same,MIC,"[14]; Staphylococcus aureus, ATCC29213, S. aureus ATCC 29213, 5 percent Survanta",> 32 µg/mL
same,MIC,"[14]; Staphylococcus aureus, ATCC29213, S. aureus ATCC 29213, 10 percent Survanta",> 32 µg/mL
same,MIC,"[14]; Staphylococcus aureus, ATCC43300, S. aureus ATCC 43300, 0 percent Survanta",0.25 µg/mL
same,MIC,"[14]; Staphylococcus aureus, ATCC43300, S. aureus ATCC 43300, 1 percent Survanta",8 µg/mL
same,MIC,"[14]; Staphylococcus aureus, ATCC43300, S. aureus ATCC 43300, 2.5 percent Survanta",16 µg/mL
same,MIC,"[14]; Staphylococcus aureus, ATCC43300, S. aureus ATCC 43300, 5 percent Survanta",16 µg/mL
same,MIC,"[14]; Staphylococcus aureus, ATCC43300, S. aureus ATCC 43300, 10 percent Survanta",> 32 µg/mL
